Oligonucleotides are given in HELM: sugar(base)linkage, 5' to 3'; d 2'-deoxyribose, r ribose, m 2'-O-methylribose, p phosphate. ss, as = sense and antisense strand
Note: test concentration or dose not given here.

The target in this data set is TMEM63B. Put plainly: reporter assay of Huesken 2005. To be noted: siRNA. A general note: A reporter such as luciferase makes a cellular process visible.
On to “RNA1{r(A)p.r(C)p.r(C)p.r(A)p.r(G)p.r(G)p.r(U)p.r(G)p.r(G)p.r(U)p.r(G)p.r(G)p.r(C)p.r(C)p.r(G)p.r(C)p.r(G)p.r(C)p.r(C)p.d(T)p.d(T)}|RNA2{r(G)p.r(G)p.r(C)p.r(G)p.r(C)p.r(G)p.r(G)p.r(C)p.r(C)p.r(A)p.r(C)p.r(C)p.r(A)p.r(C)p.r(C)p.r(U)p.r(G)p.r(G)p.r(U)p.d(T)p.d(C)}$$$RNA1{StrandType:ss}|RNA2{StrandType:as}$”, for which the normalised inhibition (eCFP-eYFP dual reporter) was found to be 57.6%.

In the case of “RNA1{r(A)p.r(C)p.r(C)p.r(C)p.r(U)p.r(G)p.r(C)p.r(U)p.r(G)p.r(C)p.r(U)p.r(G)p.r(U)p.r(G)p.r(G)p.r(U)p.r(G)p.r(C)p.r(U)p.d(T)p.d(T)}|RNA2{r(A)p.r(G)p.r(C)p.r(A)p.r(C)p.r(C)p.r(A)p.r(C)p.r(A)p.r(G)p.r(C)p.r(A)p.r(G)p.r(C)p.r(A)p.r(G)p.r(G)p.r(G)p.r(U)p.d(G)p.d(G)}$$$RNA1{StrandType:ss}|RNA2{StrandType:as}$”, the normalised inhibition (eCFP-eYFP dual reporter) was 58.5%.

In turn, “RNA1{r(A)p.r(C)p.r(G)p.r(C)p.r(U)p.r(C)p.r(U)p.r(G)p.r(G)p.r(G)p.r(G)p.r(A)p.r(G)p.r(A)p.r(A)p.r(C)p.r(A)p.r(G)p.r(G)p.d(T)p.d(T)}|RNA2{r(C)p.r(C)p.r(U)p.r(G)p.r(U)p.r(U)p.r(C)p.r(U)p.r(C)p.r(C)p.r(C)p.r(C)p.r(A)p.r(G)p.r(A)p.r(G)p.r(C)p.r(G)p.r(U)p.d(G)p.d(T)}$$$RNA1{StrandType:ss}|RNA2{StrandType:as}$” had a normalised inhibition (eCFP-eYFP dual reporter) of 48.3%.

On to “RNA1{r(A)p.r(C)p.r(G)p.r(G)p.r(A)p.r(C)p.r(A)p.r(C)p.r(A)p.r(G)p.r(A)p.r(C)p.r(U)p.r(U)p.r(C)p.r(C)p.r(A)p.r(G)p.r(U)p.d(T)p.d(T)}|RNA2{r(A)p.r(C)p.r(U)p.r(G)p.r(G)p.r(A)p.r(A)p.r(G)p.r(U)p.r(C)p.r(U)p.r(G)p.r(U)p.r(G)p.r(U)p.r(C)p.r(C)p.r(G)p.r(U)p.d(G)p.d(A)}$$$RNA1{StrandType:ss}|RNA2{StrandType:as}$”, for which the normalised inhibition (eCFP-eYFP dual reporter) worked out at 85.7%.

The substance “RNA1{r(A)p.r(C)p.r(U)p.r(A)p.r(C)p.r(A)p.r(A)p.r(G)p.r(C)p.r(G)p.r(G)p.r(G)p.r(A)p.r(G)p.r(A)p.r(A)p.r(G)p.r(G)p.r(A)p.d(T)p.d(T)}|RNA2{r(U)p.r(C)p.r(C)p.r(U)p.r(U)p.r(C)p.r(U)p.r(C)p.r(C)p.r(C)p.r(G)p.r(C)p.r(U)p.r(U)p.r(G)p.r(U)p.r(A)p.r(G)p.r(U)p.d(C)p.d(T)}$$$RNA1{StrandType:ss}|RNA2{StrandType:as}$” showed a normalised inhibition (eCFP-eYFP dual reporter) of 72%.

“RNA1{r(A)p.r(C)p.r(U)p.r(U)p.r(G)p.r(A)p.r(A)p.r(A)p.r(U)p.r(C)p.r(A)p.r(G)p.r(G)p.r(G)p.r(A)p.r(A)p.r(C)p.r(A)p.r(A)p.d(T)p.d(T)}|RNA2{r(U)p.r(U)p.r(G)p.r(U)p.r(U)p.r(C)p.r(C)p.r(C)p.r(U)p.r(G)p.r(A)p.r(U)p.r(U)p.r(U)p.r(C)p.r(A)p.r(A)p.r(G)p.r(U)p.d(T)p.d(G)}$$$RNA1{StrandType:ss}|RNA2{StrandType:as}$”: the normalised inhibition (eCFP-eYFP dual reporter) was 34.4%.

On to “RNA1{r(A)p.r(G)p.r(A)p.r(G)p.r(A)p.r(G)p.r(G)p.r(A)p.r(A)p.r(G)p.r(A)p.r(A)p.r(G)p.r(G)p.r(C)p.r(C)p.r(G)p.r(A)p.r(G)p.d(T)p.d(T)}|RNA2{r(C)p.r(U)p.r(C)p.r(G)p.r(G)p.r(C)p.r(C)p.r(U)p.r(U)p.r(C)p.r(U)p.r(U)p.r(C)p.r(C)p.r(U)p.r(C)p.r(U)p.r(C)p.r(U)p.d(G)p.d(C)}$$$RNA1{StrandType:ss}|RNA2{StrandType:as}$”, for which the normalised inhibition (eCFP-eYFP dual reporter) was found to be 49.4%.

On to “RNA1{r(A)p.r(G)p.r(A)p.r(G)p.r(G)p.r(C)p.r(G)p.r(C)p.r(A)p.r(A)p.r(C)p.r(G)p.r(U)p.r(G)p.r(A)p.r(A)p.r(G)p.r(C)p.r(G)p.d(T)p.d(T)}|RNA2{r(C)p.r(G)p.r(C)p.r(U)p.r(U)p.r(C)p.r(A)p.r(C)p.r(G)p.r(U)p.r(U)p.r(G)p.r(C)p.r(G)p.r(C)p.r(C)p.r(U)p.r(C)p.r(U)p.d(C)p.d(G)}$$$RNA1{StrandType:ss}|RNA2{StrandType:as}$”, for which the normalised inhibition (eCFP-eYFP dual reporter) was determined as 35.7%.

In turn, “RNA1{r(A)p.r(G)p.r(C)p.r(A)p.r(G)p.r(G)p.r(U)p.r(G)p.r(G)p.r(A)p.r(G)p.r(G)p.r(C)p.r(C)p.r(A)p.r(U)p.r(U)p.r(G)p.r(A)p.d(T)p.d(T)}|RNA2{r(U)p.r(C)p.r(A)p.r(A)p.r(U)p.r(G)p.r(G)p.r(C)p.r(C)p.r(U)p.r(C)p.r(C)p.r(A)p.r(C)p.r(C)p.r(U)p.r(G)p.r(C)p.r(U)p.d(C)p.d(A)}$$$RNA1{StrandType:ss}|RNA2{StrandType:as}$” yielded a normalised inhibition (eCFP-eYFP dual reporter) of 77.2%.

Substance “RNA1{r(A)p.r(G)p.r(C)p.r(C)p.r(U)p.r(A)p.r(C)p.r(C)p.r(C)p.r(C)p.r(A)p.r(A)p.r(C)p.r(U)p.r(G)p.r(C)p.r(A)p.r(C)p.r(A)p.d(T)p.d(T)}|RNA2{r(U)p.r(G)p.r(U)p.r(G)p.r(C)p.r(A)p.r(G)p.r(U)p.r(U)p.r(G)p.r(G)p.r(G)p.r(G)p.r(U)p.r(A)p.r(G)p.r(G)p.r(C)p.r(U)p.d(T)p.d(C)}$$$RNA1{StrandType:ss}|RNA2{StrandType:as}$” registered a normalised inhibition (eCFP-eYFP dual reporter) of 70.7%.

Substance “RNA1{r(A)p.r(G)p.r(C)p.r(U)p.r(C)p.r(A)p.r(G)p.r(G)p.r(G)p.r(G)p.r(A)p.r(U)p.r(G)p.r(A)p.r(G)p.r(C)p.r(C)p.r(C)p.r(C)p.d(T)p.d(T)}|RNA2{r(G)p.r(G)p.r(G)p.r(G)p.r(C)p.r(U)p.r(C)p.r(A)p.r(U)p.r(C)p.r(C)p.r(C)p.r(C)p.r(U)p.r(G)p.r(A)p.r(G)p.r(C)p.r(U)p.d(C)p.d(C)}$$$RNA1{StrandType:ss}|RNA2{StrandType:as}$” gave a normalised inhibition (eCFP-eYFP dual reporter) of 43%.

For “RNA1{r(A)p.r(G)p.r(G)p.r(A)p.r(G)p.r(G)p.r(A)p.r(U)p.r(G)p.r(A)p.r(U)p.r(C)p.r(U)p.r(G)p.r(G)p.r(U)p.r(G)p.r(A)p.r(A)p.d(T)p.d(T)}|RNA2{r(U)p.r(U)p.r(C)p.r(A)p.r(C)p.r(C)p.r(A)p.r(G)p.r(A)p.r(U)p.r(C)p.r(A)p.r(U)p.r(C)p.r(C)p.r(U)p.r(C)p.r(C)p.r(U)p.d(T)p.d(G)}$$$RNA1{StrandType:ss}|RNA2{StrandType:as}$”, the normalised inhibition (eCFP-eYFP dual reporter) worked out at 77.4%.

Turning to “RNA1{r(A)p.r(G)p.r(G)p.r(U)p.r(G)p.r(C)p.r(U)p.r(G)p.r(C)p.r(A)p.r(G)p.r(G)p.r(A)p.r(C)p.r(U)p.r(C)p.r(A)p.r(G)p.r(A)p.d(T)p.d(T)}|RNA2{r(U)p.r(C)p.r(U)p.r(G)p.r(A)p.r(G)p.r(U)p.r(C)p.r(C)p.r(U)p.r(G)p.r(C)p.r(A)p.r(G)p.r(C)p.r(A)p.r(C)p.r(C)p.r(U)p.d(G)p.d(A)}$$$RNA1{StrandType:ss}|RNA2{StrandType:as}$”, the normalised inhibition (eCFP-eYFP dual reporter) amounted to 61.8%.

As to “RNA1{r(A)p.r(G)p.r(U)p.r(G)p.r(C)p.r(C)p.r(C)p.r(A)p.r(C)p.r(A)p.r(A)p.r(C)p.r(U)p.r(A)p.r(C)p.r(A)p.r(A)p.r(G)p.r(A)p.d(T)p.d(T)}|RNA2{r(U)p.r(C)p.r(U)p.r(U)p.r(G)p.r(U)p.r(A)p.r(G)p.r(U)p.r(U)p.r(G)p.r(U)p.r(G)p.r(G)p.r(G)p.r(C)p.r(A)p.r(C)p.r(U)p.d(G)p.d(A)}$$$RNA1{StrandType:ss}|RNA2{StrandType:as}$”, the normalised inhibition (eCFP-eYFP dual reporter) stood at 81.7%.

“RNA1{r(A)p.r(G)p.r(U)p.r(U)p.r(U)p.r(G)p.r(G)p.r(C)p.r(G)p.r(C)p.r(A)p.r(G)p.r(C)p.r(C)p.r(U)p.r(A)p.r(C)p.r(G)p.r(C)p.d(T)p.d(T)}|RNA2{r(G)p.r(C)p.r(G)p.r(U)p.r(A)p.r(G)p.r(G)p.r(C)p.r(U)p.r(G)p.r(C)p.r(G)p.r(C)p.r(C)p.r(A)p.r(A)p.r(A)p.r(C)p.r(U)p.d(G)p.d(G)}$$$RNA1{StrandType:ss}|RNA2{StrandType:as}$” came in with a normalised inhibition (eCFP-eYFP dual reporter) of 60.9%.

“RNA1{r(A)p.r(U)p.r(C)p.r(A)p.r(A)p.r(U)p.r(G)p.r(U)p.r(C)p.r(G)p.r(U)p.r(C)p.r(C)p.r(U)p.r(C)p.r(U)p.r(U)p.r(C)p.r(A)p.d(T)p.d(T)}|RNA2{r(U)p.r(G)p.r(A)p.r(A)p.r(G)p.r(A)p.r(G)p.r(G)p.r(A)p.r(C)p.r(G)p.r(A)p.r(C)p.r(A)p.r(U)p.r(U)p.r(G)p.r(A)p.r(U)p.d(G)p.d(A)}$$$RNA1{StrandType:ss}|RNA2{StrandType:as}$” came in with a normalised inhibition (eCFP-eYFP dual reporter) of 49.2%.

For “RNA1{r(A)p.r(U)p.r(C)p.r(A)p.r(U)p.r(C)p.r(A)p.r(U)p.r(C)p.r(A)p.r(C)p.r(C)p.r(A)p.r(C)p.r(C)p.r(A)p.r(U)p.r(G)p.r(G)p.d(T)p.d(T)}|RNA2{r(C)p.r(C)p.r(A)p.r(U)p.r(G)p.r(G)p.r(U)p.r(G)p.r(G)p.r(U)p.r(G)p.r(A)p.r(U)p.r(G)p.r(A)p.r(U)p.r(G)p.r(A)p.r(U)p.d(G)p.d(G)}$$$RNA1{StrandType:ss}|RNA2{StrandType:as}$”, the normalised inhibition (eCFP-eYFP dual reporter) turned out to be 59.5%.

“RNA1{r(A)p.r(U)p.r(C)p.r(C)p.r(U)p.r(C)p.r(A)p.r(U)p.r(C)p.r(C)p.r(C)p.r(A)p.r(A)p.r(G)p.r(A)p.r(U)p.r(G)p.r(A)p.r(G)p.d(T)p.d(T)}|RNA2{r(C)p.r(U)p.r(C)p.r(A)p.r(U)p.r(C)p.r(U)p.r(U)p.r(G)p.r(G)p.r(G)p.r(A)p.r(U)p.r(G)p.r(A)p.r(G)p.r(G)p.r(A)p.r(U)p.d(G)p.d(A)}$$$RNA1{StrandType:ss}|RNA2{StrandType:as}$” gave a normalised inhibition (eCFP-eYFP dual reporter) of 53.8%.

Regarding “RNA1{r(A)p.r(U)p.r(C)p.r(U)p.r(G)p.r(C)p.r(G)p.r(A)p.r(A)p.r(A)p.r(U)p.r(A)p.r(C)p.r(A)p.r(U)p.r(C)p.r(G)p.r(C)p.r(U)p.d(T)p.d(T)}|RNA2{r(A)p.r(G)p.r(C)p.r(G)p.r(A)p.r(U)p.r(G)p.r(U)p.r(A)p.r(U)p.r(U)p.r(U)p.r(C)p.r(G)p.r(C)p.r(A)p.r(G)p.r(A)p.r(U)p.d(T)p.d(T)}$$$RNA1{StrandType:ss}|RNA2{StrandType:as}$”, the normalised inhibition (eCFP-eYFP dual reporter) was 50.5%.

Turning to “RNA1{r(A)p.r(U)p.r(G)p.r(C)p.r(G)p.r(U)p.r(A)p.r(G)p.r(A)p.r(C)p.r(A)p.r(C)p.r(A)p.r(C)p.r(C)p.r(U)p.r(C)p.r(C)p.r(A)p.d(T)p.d(T)}|RNA2{r(U)p.r(G)p.r(G)p.r(A)p.r(G)p.r(G)p.r(U)p.r(G)p.r(U)p.r(G)p.r(U)p.r(C)p.r(U)p.r(A)p.r(C)p.r(G)p.r(C)p.r(A)p.r(U)p.d(G)p.d(C)}$$$RNA1{StrandType:ss}|RNA2{StrandType:as}$”, the normalised inhibition (eCFP-eYFP dual reporter) was found to be 76.8%.
